Test results taken from ChEMBL document CHEMBL5518181, “Studies of antibacterial activity (in vitro and in vivo) and mode of action for des-acyl tridecaptins (DATs)” (Eur J Med Chem, 2024).
Values after ≈ are worked out from the molar mass of the structure shown.

Legend:
[1] = Hemolytic activity in human red blood cells at 400 ug/ml incubated for 45 mins by spectrophotometric analysis relative to control; assay type: toxicity, cell-based, Erythrocyte; details: red blood cells (erythrocytes), at 400 µg/mL, read-out: Activity
[2] = test system: Escherichia coli; test: Antibacterial activity against wild-type Escherichia coli ATCC 25922 assessed as inhibition of bacterial growth incubated for 18 hrs; assay type: functional; details: read-out: MIC100
[3] = Cytotoxicity against human HepG2 cells incubated for 40 hrs by celltiter-glo luminescent cell viability assay; assay type: toxicity, cell-based
[4] = test system: Klebsiella pneumoniae; test: Antibacterial activity against wild-type Klebsiella pneumoniae ATCC 13883 assessed as inhibition of bacterial growth incubated for 18 hrs; assay type: functional; details: read-out: MIC100

| SMILES | MIC [2] [µg/mL] | MIC [4] [µg/mL] | hemolysis at 0.75 h, 400 ug/ml [1] [%] | IC50 at 40 h [3] [µg/mL] |
| --- | --- | --- | --- | --- |
| CC(C)C[C@@H](NC(=O)[C@@H](NC(=O)[C@H](CCC(=O)O)NC(=O)[C@H](Cc1ccccc1)NC(=O)[C@@H](CCN)NC(=O)[C@H](CCN)NC(=O)[C@H](CO)NC(=O)[C@@H](Cc1c[nH]c2ccccc12)NC(=O)[C@@H](CO)NC(=O)CNC(=O)[C@@H](CCN)NC(=O)[C@H](N)C(C)C)C(C)C)C(=O)N[C@@H](C)C(=O)O | 64 (≈ 45.9 µM) | 64 (≈ 45.9 µM) | 45.9 | 161 (≈ 115 µM) |
| CC[C@H](C)[C@@H](NC(=O)[C@@H](NC(=O)[C@H](CCC(=O)O)NC(=O)[C@H](Cc1ccccc1)NC(=O)[C@@H](CCN)NC(=O)[C@H](CCN)NC(=O)[C@H](CO)NC(=O)[C@@H](Cc1c[nH]c2ccccc12)NC(=O)[C@@H](CO)NC(=O)CNC(=O)[C@@H](CCN)NC(=O)[C@H](N)CCN)C(C)C)C(=O)N[C@@H](C)C(=O)O | > 64 | > 64 | 0 | > 170 |
| CC[C@H](C)[C@@H](NC(=O)[C@@H](NC(=O)[C@H](CCC(=O)O)NC(=O)[C@H](Cc1ccccc1)NC(=O)[C@@H](CCN)NC(=O)[C@H](CCN)NC(=O)[C@H](CO)NC(=O)[C@@H](Cc1c[nH]c2ccccc12)NC(=O)[C@@H](CO)NC(=O)CNC(=O)[C@@H](CCN)NC(=O)[C@H](N)CC(=O)O)C(C)C)C(=O)N[C@@H](C)C(=O)O | > 64 | > 64 | 0 | > 170 |
| CC[C@H](C)[C@@H](NC(=O)[C@@H](NC(=O)[C@H](CCC(=O)O)NC(=O)[C@H](Cc1ccccc1)NC(=O)[C@@H](CCN)NC(=O)[C@H](CCN)NC(=O)[C@H](CO)NC(=O)[C@@H](Cc1c[nH]c2ccccc12)NC(=O)[C@@H](CO)NC(=O)CNC(=O)[C@@H](CCN)NC(=O)[C@H](NC(=O)[C@H](C)N)C(C)C)C(C)(C)C)C(=O)N[C@@H](C)C(=O)O | 2 (≈ 1.35 µM) | 2 (≈ 1.35 µM) | 82.7 | 12 (≈ 8.11 µM) |
| CC[C@H](C)[C@@H](NC(=O)[C@@H](NC(=O)[C@H](CCC(=O)O)NC(=O)[C@H](Cc1ccccc1)NC(=O)[C@@H](CCN)NC(=O)[C@H](CCN)NC(=O)[C@H](CO)NC(=O)[C@@H](Cc1c[nH]c2ccccc12)NC(=O)[C@@H](CO)NC(=O)CNC(=O)[C@@H](CCN)NC(=O)[C@H](NC(=O)C(F)(F)CN)C(C)C)C(C)C)C(=O)N[C@@H](C)C(=O)O | > 64 | > 64 | 0 | > 170 |
| CC[C@H](C)[C@@H](NC(=O)[C@H](C)NC(=O)[C@H](CCC(=O)O)NC(=O)[C@H](Cc1ccccc1)NC(=O)[C@@H](CCN)NC(=O)[C@H](CCN)NC(=O)[C@H](CO)NC(=O)[C@@H](Cc1c[nH]c2ccccc12)NC(=O)[C@@H](CO)NC(=O)CNC(=O)[C@@H](CCN)NC(=O)[C@H](NC(=O)[C@H](C)N)C(C)C)C(=O)N[C@@H](C)C(=O)O | 32 (≈ 22.3 µM) | 32 (≈ 22.3 µM) | 5.5 | 51 (≈ 35.5 µM) |
| CC[C@H](C)[C@@H](NC(=O)[C@@H](NC(=O)[C@H](CCC(=O)O)NC(=O)[C@H](Cc1ccccc1)NC(=O)[C@@H](CCN)NC(=O)[C@H](CCN)NC(=O)[C@H](CO)NC(=O)[C@@H](Cc1c[nH]c2ccccc12)NC(=O)[C@@H](CO)NC(=O)[C@H](C)NC(=O)[C@@H](CCN)NC(=O)[C@H](NC(=O)[C@H](C)N)C(C)C)C(C)C)C(=O)N[C@@H](C)C(=O)O | 16 (≈ 10.8 µM) | 32 (≈ 21.6 µM) | 31.9 | 74 (≈ 50 µM) |
| CC[C@H](C)[C@@H](NC(=O)[C@@H](NC(=O)[C@H](CCC(=O)O)NC(=O)[C@H](Cc1ccccc1)NC(=O)[C@@H](CCN)NC(=O)[C@H](CCN)NC(=O)[C@H](CO)NC(=O)[C@@H](C)NC(=O)[C@@H](CO)NC(=O)CNC(=O)[C@@H](CCN)NC(=O)[C@H](NC(=O)[C@H](C)N)C(C)C)C(C)C)C(=O)N[C@@H](C)C(=O)O | > 64 | > 64 | 0 | > 170 |
| CC[C@H](C)[C@@H](NC(=O)[C@@H](NC(=O)[C@H](CCC(=O)O)NC(=O)[C@H](Cc1ccccc1)NC(=O)[C@@H](C)NC(=O)[C@H](CCN)NC(=O)[C@H](CO)NC(=O)[C@@H](Cc1c[nH]c2ccccc12)NC(=O)[C@@H](CO)NC(=O)CNC(=O)[C@@H](CCN)NC(=O)[C@H](N)C(C)C)C(C)C)C(=O)N[C@@H](C)C(=O)O | > 64 | 64 (≈ 46.9 µM) | 0 | > 170 |
| CC[C@H](C)[C@@H](NC(=O)[C@@H](NC(=O)[C@H](CCC(=O)O)NC(=O)[C@H](Cc1c[nH]c2ccccc12)NC(=O)[C@@H](CCN)NC(=O)[C@H](CCN)NC(=O)[C@H](CO)NC(=O)[C@@H](Cc1c[nH]c2ccccc12)NC(=O)[C@@H](CO)NC(=O)CNC(=O)[C@@H](CCN)NC(=O)[C@H](N)C(C)C)C(C)C)C(=O)N[C@@H](C)C(=O)O | 16 (≈ 11.2 µM) | 8 (≈ 5.58 µM) | 43.7 | > 170 |

More lines, main results first:

| MIC [2] [µg/mL] | MIC [4] [µg/mL] | SMILES | hemolysis at 0.75 h, 400 ug/ml [1] [%] | IC50 at 40 h [3] [µg/mL] |
| --- | --- | --- | --- | --- |
| 32 (≈ 22.7 µM) | 16 (≈ 11.4 µM) | CC[C@H](C)[C@@H](NC(=O)[C@@H](NC(=O)[C@H](CCC(=O)O)NC(=O)[C@H](Cc1ccccc1)NC(=O)[C@@H](CCN)NC(=O)[C@H](CCN)NC(=O)[C@H](CO)NC(=O)[C@@H](Cc1c[nH]c2ccccc12)NC(=O)[C@@H](CO)NC(=O)CNC(=O)[C@@H](CCN)NC(=O)[C@H](N)C(C)(C)C)C(C)C)C(=O)N[C@@H](C)C(=O)O | 13 | 33 (≈ 23.4 µM) |
| > 64 | 64 (≈ 44.5 µM) | CC[C@H](C)[C@@H](NC(=O)[C@@H](NC(=O)[C@H](CCC(=O)O)NC(=O)[C@H](Cc1ccccc1)NC(=O)[C@@H](CCN)NC(=O)[C@H](CCN)NC(=O)[C@H](CO)NC(=O)[C@@H](Cc1c[nH]c2ccccc12)NC(=O)[C@@H](CO)NC(=O)CNC(=O)[C@@H](C)NC(=O)[C@H](NC(=O)[C@H](C)N)C(C)C)C(C)C)C(=O)N[C@@H](C)C(=O)O | 0.6 | > 170 |
| > 64 | 64 (≈ 46.4 µM) | CC[C@H](C)[C@@H](NC(=O)[C@@H](NC(=O)[C@H](CCC(=O)O)NC(=O)[C@H](Cc1ccccc1)NC(=O)[C@@H](CCN)NC(=O)[C@H](CCN)NC(=O)[C@H](CO)NC(=O)[C@@H](Cc1c[nH]c2ccccc12)NC(=O)[C@@H](C)NC(=O)CNC(=O)[C@@H](CCN)NC(=O)[C@H](N)C(C)C)C(C)C)C(=O)N[C@@H](C)C(=O)O | 0 | > 170 |
| > 64 | > 64 | CC[C@H](C)[C@@H](NC(=O)[C@@H](NC(=O)[C@H](CCC(=O)O)NC(=O)[C@H](Cc1ccccc1)NC(=O)[C@@H](CCN)NC(=O)[C@H](CCN)NC(=O)[C@H](CO)NC(=O)[C@@H](Cc1c[nH]c2ccccc12)NC(=O)[C@@H](CC(=O)O)NC(=O)CNC(=O)[C@@H](CCN)NC(=O)[C@H](N)C(C)C)C(C)C)C(=O)N[C@@H](C)C(=O)O | 0 | > 170 |
| 4 (≈ 2.76 µM) | 8 (≈ 5.52 µM) | CC[C@H](C)[C@@H](NC(=O)[C@@H](NC(=O)[C@H](CCC(=O)O)NC(=O)[C@H](Cc1ccccc1)NC(=O)[C@@H](CCN)NC(=O)[C@H](CCN)NC(=O)[C@H](C)NC(=O)[C@@H](Cc1c[nH]c2ccccc12)NC(=O)[C@@H](CO)NC(=O)CNC(=O)[C@@H](CCN)NC(=O)[C@H](NC(=O)[C@H](C)N)C(C)C)C(C)C)C(=O)N[C@@H](C)C(=O)O | 0 | > 170 |
| > 64 | > 64 | CC[C@H](C)[C@@H](NC(=O)[C@@H](NC(=O)[C@H](CCC(=O)O)NC(=O)[C@H](Cc1ccccc1)NC(=O)[C@@H](CCN)NC(=O)[C@H](CCN)NC(=O)[C@H](C)NC(=O)[C@@H](Cc1c[nH]c2ccccc12)NC(=O)[C@@H](CO)NC(=O)CNC(=O)[C@@H](CCN)NC(=O)[C@H](N)C(C)C)C(C)C)C(=O)N[C@@H](C)C(=O)O | 0 | > 170 |
| > 64 | 64 (≈ 46.8 µM) | CC[C@H](C)[C@@H](NC(=O)[C@H](C)NC(=O)[C@H](CCC(=O)O)NC(=O)[C@H](Cc1ccccc1)NC(=O)[C@@H](CCN)NC(=O)[C@H](CCN)NC(=O)[C@H](CO)NC(=O)[C@@H](Cc1c[nH]c2ccccc12)NC(=O)[C@@H](CO)NC(=O)CNC(=O)[C@@H](CCN)NC(=O)[C@H](N)C(C)C)C(=O)N[C@@H](C)C(=O)O | 0.8 | 58 (≈ 42.4 µM) |
| > 64 | > 64 | CC[C@H](C)[C@@H](NC(=O)[C@@H](NC(=O)[C@H](CCC(=O)O)NC(=O)[C@H](Cc1ccccc1)NC(=O)[C@@H](CCN)NC(=O)[C@H](CCN)NC(=O)[C@H](CO)NC(=O)[C@@H](Cc1c[nH]c2ccccc12)NC(=O)[C@@H](CCN)NC(=O)CNC(=O)[C@@H](CCN)NC(=O)[C@H](N)C(C)C)C(C)C)C(=O)N[C@@H](C)C(=O)O | 0 | > 170 |
| > 64 | > 64 | CC[C@H](C)[C@@H](NC(=O)[C@@H](NC(=O)[C@H](CCC(=O)O)NC(=O)[C@H](Cc1ccccc1)NC(=O)[C@@H](CN)NC(=O)[C@H](CCN)NC(=O)[C@H](CO)NC(=O)[C@@H](Cc1c[nH]c2ccccc12)NC(=O)[C@@H](CO)NC(=O)CNC(=O)[C@@H](CCN)NC(=O)[C@H](NC(=O)[C@H](C)N)C(C)C)C(C)C)C(=O)N[C@@H](C)C(=O)O | 0 | > 170 |
| 64 (≈ 46.4 µM) | 64 (≈ 46.4 µM) | CC[C@H](C)[C@@H](NC(=O)[C@@H](NC(=O)[C@H](CC(=O)O)NC(=O)[C@H](Cc1ccccc1)NC(=O)[C@@H](CCN)NC(=O)[C@H](CCN)NC(=O)[C@H](CO)NC(=O)[C@@H](Cc1c[nH]c2ccccc12)NC(=O)[C@@H](CO)NC(=O)CNC(=O)[C@@H](CCN)NC(=O)[C@H](N)C(C)C)C(C)C)C(=O)N[C@@H](C)C(=O)O | 0 | > 170 |
